In US20050260126A1 (priority 2002, published 2005):
Where a name gives a salt, the structure may show the parent alone.

Legend:
[1] = system: abnormal prion proteins (kuru plaques) in brain sections of GSS patients; set-up: species or system human; conditions: GSS patient brain sections, 10-200 μM in 50% ethanol, 30 minutes
[2] = system: abnormal prion proteins in ScN2a cells with persistent infection of scrapie; experiment: cells; assay type: cell-based, mouse; conditions: for IC50: Mus musculus, ScN2a, 96 h, read-out: Inhibitory effects on producing abnormal prion protein IC50; for Inhibitory effects on producing abnormal prion proteins (in words): ScN2a cells
[3] = system: ScN2a cells; conditions: mouse
[4] = Slc:ICR, mouse, not told, iv
[5] = in vivo; conditions: male, Crj:CD1, mouse, iv

| Structure (SMILES) | Detection of spotted depositions of abnormal prion proteins (fluorescent signals) [1] | IC50 [2] | Concentration of inhibiting cell proliferation TC [3] | Inhibitory effects on producing abnormal prion proteins (in words) [2] | Permeability into the brain: content in Brain [4] | Permeability into the brain: content in Plasma [4] | MTD [5] |
| --- | --- | --- | --- | --- | --- | --- | --- |
| CN(C)c1ccc2cc(-c3nc4cc(F)ccc4o3)ccc2c1 [BF-151, 5-fluoro-2-(6-dimethyl-aminonaphthalen-2-yl)benzoxazole] | spotted fluorescent signals were observed | 10 nM | 100 µM |  |  |  |  |
| CN(C)c1ccc(/C=C/c2nc3ccc(F)cc3o2)cc1 [BF-148, 2-(4-dimethylamino) styryl-6-fluoro-benzoazole] | spotted fluorescent signals were observed | 1 nM | 10 µM | highly inhibitory effects |  |  |  |
| CN(C)c1ccc(-c2ccc3ccccc3n2)cc1 [Compound N-310, 2-[(4-dimethylamino)-phenyl]quinoline] | spotted fluorescent signals were observed | 5 nM | 50 µM |  | 15 % ID/g or ml | 1.0 % ID/g or ml |  |
| CN(C)c1ccc(/C=C/c2nc3cc4c(cc3s2)OCO4)cc1 [Compound N-277, 4-[2-(5,6-methylene-dioxy-benzothiazol-2-yl)ethenyl]-N,N-di-methylbenzenamin] | detection of spotted depositions of abnormal prion proteins | 50 nM | 50 µM |  |  |  |  |
| CN(C)c1ccc(/C=C/c2nc3cc(F)ccc3s2)cc1 [BF-162, 2-(4-dimethylamino) styryl-5-fluorobenzo-thiazole] | spotted fluorescent signals were observed | 10 nM | 100 µM |  |  |  |  |
| CN(C)c1ccc(/C=C/c2nc3ccccc3o2)cc1 [Compound N-282, 2-(4-dimethylamino) styrylbenzoxazole] | spotted fluorescent signals were observed | 50 nM | 50 µM |  | 4.0 % ID/g or ml | 0.7 % ID/g or ml |  |
| Cc1ccc2sc(/C=C/c3ccccc3C)nc2c1 [Compound N-440, 2-[2-(2-methylphenyl)-ethenyl]-5-methyl-benzothiazole] | spotted fluorescent signals were observed | 100 nM | 100 µM |  |  |  |  |
| CCN(CC)c1ccc(-c2ccc3ccccc3n2)cc1 [Compound N-313, 2-[(4-diethylamino)-phenyl]quinoline] | spotted fluorescent signals were observed | 500 nM | 50 µM |  | 4.6 % ID/g or ml | 1.1 % ID/g or ml |  |
| Clc1ccccc1/C=C/c1nc2ccccc2s1 [Compound N-454, 2-[2-(2-chlorophenyl)ethenyl]benzothiazole] | spotted fluorescent signals were observed | 10 nM | 100 µM |  |  |  |  |
| Nc1ccc(C(=O)Nc2ccc(-c3nc4ccc(NC(=O)c5ccc(N)cc5)c(Cl)c4[nH]3)cc2)cc1 [Compound N-227, 4-[6-(N′-(4-amino-benzoyl)amino)-7-chlorobenzimidazol-2-yl]-N-(4-aminobenzoyl)aniline] | spotted fluorescent signals were observed | 10 nM | 10 µM |  |  |  |  |
| CN(C)c1ccc2cc(-c3nc4cc(F)ccc4s3)ccc2c1 [BF-154, 5-fluoro-2-(6-dimethyl-aminonaphthalen-2-yl)benzothiazole] | spotted fluorescent signals were observed |  |  |  | 1.1 % ID/g or ml | 1.4 % ID/g or ml |  |
| CN(C)c1ccc(/C=C/c2ccco2)cc1 [BF-142, 2-[2-(4-dimethylamino-phenyl)ethenyl]furan] | spotted fluorescent signals were observed | 10 nM | 100 µM |  |  |  |  |
| CN(C)c1ccc(/C=C/c2nc3cc(F)ccc3o2)cc1 [BF-133, 2-(4-dimethylamino) styryl-5-fluoro-benzoxazole] | spotted fluorescent signals were observed | 5 nM | 50 µM |  | 5.5 % ID/g or ml | 1.3 % ID/g or ml |  |
| CNc1ccc(-c2nc3ccc(O)cc3s2)cc1 [BF-172, 2-(4-methylamino)-phenyl-6-hydroxybenzo thiazole] |  | 1.6 nM | >10 µM |  | 4.9 % ID/g or ml | 2.9 % ID/g or ml | ≥ 10 mg/kg |
| Cc1nc(/C=C/c2ccc(N(C)C)cc2)oc1C [BF-137, 2-[2-(4-dimethylamino-phenyl)ethenyl]-4-5-dimethyloxazole] |  | 100 nM | 100 µM |  | 6.5 % ID/g or ml | 2.9 % ID/g or ml | ≥ 10 mg/kg |
| COc1cc(/C=C/c2nc3ccccc3s2)cc(OC)c1 [Compound N-408, 2-[2-(3,5-dimethoxy-phenyl)ethenyl]-benzothiazole] | spotted fluorescent signals were observed | 10 nM | 100 µM |  |  |  |  |
| CN(C)c1ncc(/C=C/c2nc3ccccc3o2)s1 [BF-197, 2-[2-(2-dimethyl-aminothiazol-5-yl)-ethenyl]benzoxazole] |  | 16 nM | 10 µM |  | 15 % ID/g or ml | 1.9 % ID/g or ml | ≥ 10 mg/kg |
| CN(C)c1ncc(/C=C/c2ccc3ccccc3n2)s1 [BF-222, 2-[2-(2-dimethylthiazol-5-yl)ethenyl]quinoline] |  | 8 nM | >10 µM |  | 13.0 % ID/g or ml | 2.0 % ID/g or ml | ≥ 10 mg/kg |
| C(=C\c1nc2ccccc2[nH]1)/c1ccccc1 [Compound N-491, 2-styrylbenzimidazole] |  | 10 nM | 100 µM |  | 7.4 % ID/g or ml | 2.3 % ID/g or ml | ≥ 10 mg/kg |
| CNc1ccc(/C=C/c2ccc3ccccc3n2)cc1 [BF-178, 2-[2-(4-methylaminophenyl)ethenyl]quinoline] |  | 1000 nM | 100 µM |  | 6.3 % ID/g or ml | 4.5 % ID/g or ml | ≥ 10 mg/kg |
| Nc1ccc(/C=C/c2nc3ccccc3[nH]2)cc1 [Compound N-398, 4-[2-(2-benzimidazolyl)-ethenyl]benzenamine sulfate] | spotted fluorescent signals were observed | 5 nM | 50 µM |  |  |  |  |
| CN(C)c1ccc(/C=C/c2nc3ccccc3s2)cc1 [Compound N-276, 4-[2-(2-benzothiazolyl)-ethenyl]-N,N-dimethyl-benzenamine] | spotted fluorescent signals were observed | 5 nM | 50 µM |  |  |  |  |
| CCN(CC)c1ccc(/C=C/c2cn3cc(F)ccc3n2)cc1 [BF-136, 2-[2-(4-diethylaminophenyl)ethenyl]-6-fluoroimidazo[1,2-a]-pyridine] | spotted fluorescent signals were observed | 1 nM | 10 µM | highly inhibitory effects |  |  |  |
| CN(C)c1ccc(/C=C/c2nc3ccccc3s2)c(O)c1 [BF-192, 2-[2-(2-hydroxy-4-dimethylaminophenyl)ethenyl]benzothiazole] |  | 1.6 nM | >10 µM |  | 5.5 % ID/g or ml | 2.6 % ID/g or ml | ≥ 10 mg/kg |
